# From patent US20090042915A1, “PREVENTIVE OR THERAPEUTIC AGENT FOR HERPESVIRUS-RELEATED DISEASE” (ASTELLAS PHARMA INC., priority 2005, published 2009)
# Columns and labels:
# [1] = biological target: T1, HSV-1 helicase-primase complex (Human herpesvirus 1, UniProt P10189+P10236); test: Helicase-primase inhibitory activity (DNA-dependent ATPase activity, Malachite Green); assay type: biochemical
# T1 construct: made in house; host or cells: Baculovirus expression; The baculoviruses came from Dr. Nigel D. Stow (MRC, UK)
# T1 sequence (P10236 whole entry): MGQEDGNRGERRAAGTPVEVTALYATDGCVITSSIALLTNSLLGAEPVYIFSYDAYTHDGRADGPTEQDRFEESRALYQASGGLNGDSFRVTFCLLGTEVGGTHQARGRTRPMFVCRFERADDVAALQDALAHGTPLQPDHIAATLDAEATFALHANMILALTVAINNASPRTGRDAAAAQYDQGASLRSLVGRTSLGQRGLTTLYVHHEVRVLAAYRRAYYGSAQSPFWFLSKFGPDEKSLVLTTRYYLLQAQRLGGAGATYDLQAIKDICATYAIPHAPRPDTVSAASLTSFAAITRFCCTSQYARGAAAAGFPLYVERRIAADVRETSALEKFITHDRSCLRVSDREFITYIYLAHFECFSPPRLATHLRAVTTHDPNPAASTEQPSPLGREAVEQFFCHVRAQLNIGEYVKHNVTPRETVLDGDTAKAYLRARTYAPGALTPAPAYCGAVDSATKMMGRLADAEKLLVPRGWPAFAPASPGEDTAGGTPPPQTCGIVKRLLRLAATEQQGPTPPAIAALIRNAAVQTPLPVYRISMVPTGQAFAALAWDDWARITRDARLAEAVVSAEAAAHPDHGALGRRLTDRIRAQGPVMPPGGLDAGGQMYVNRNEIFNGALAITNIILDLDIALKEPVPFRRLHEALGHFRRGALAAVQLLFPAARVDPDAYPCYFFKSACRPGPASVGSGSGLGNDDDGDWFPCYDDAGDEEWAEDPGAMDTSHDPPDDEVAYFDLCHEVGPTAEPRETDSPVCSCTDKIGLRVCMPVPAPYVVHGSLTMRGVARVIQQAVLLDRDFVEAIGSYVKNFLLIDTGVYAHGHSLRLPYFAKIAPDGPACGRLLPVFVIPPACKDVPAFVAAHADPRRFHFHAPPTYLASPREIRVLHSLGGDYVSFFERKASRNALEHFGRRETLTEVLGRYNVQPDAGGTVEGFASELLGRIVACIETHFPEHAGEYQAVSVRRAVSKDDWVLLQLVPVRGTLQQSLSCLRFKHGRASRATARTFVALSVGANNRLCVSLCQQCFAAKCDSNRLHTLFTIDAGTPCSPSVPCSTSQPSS
# T1 sequence (P10192 whole entry, further chain): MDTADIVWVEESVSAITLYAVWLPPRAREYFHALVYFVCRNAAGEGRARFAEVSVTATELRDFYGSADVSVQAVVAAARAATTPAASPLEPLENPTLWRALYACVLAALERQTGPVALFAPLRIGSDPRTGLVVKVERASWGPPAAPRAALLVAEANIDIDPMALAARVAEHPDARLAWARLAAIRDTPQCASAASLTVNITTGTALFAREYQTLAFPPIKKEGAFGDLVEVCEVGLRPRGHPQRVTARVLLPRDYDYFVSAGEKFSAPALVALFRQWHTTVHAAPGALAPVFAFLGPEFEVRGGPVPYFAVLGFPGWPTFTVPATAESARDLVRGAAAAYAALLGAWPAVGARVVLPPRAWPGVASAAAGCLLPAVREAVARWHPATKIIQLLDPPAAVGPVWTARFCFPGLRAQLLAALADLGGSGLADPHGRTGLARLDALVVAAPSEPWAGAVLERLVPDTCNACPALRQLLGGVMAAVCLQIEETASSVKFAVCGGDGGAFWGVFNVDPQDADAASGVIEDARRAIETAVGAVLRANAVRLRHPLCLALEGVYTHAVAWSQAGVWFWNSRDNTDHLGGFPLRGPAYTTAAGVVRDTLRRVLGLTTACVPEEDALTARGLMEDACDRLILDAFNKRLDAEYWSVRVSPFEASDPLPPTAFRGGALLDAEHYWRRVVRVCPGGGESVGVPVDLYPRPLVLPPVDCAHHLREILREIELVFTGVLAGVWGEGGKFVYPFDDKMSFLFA
# T1 sequence (P10189 whole entry): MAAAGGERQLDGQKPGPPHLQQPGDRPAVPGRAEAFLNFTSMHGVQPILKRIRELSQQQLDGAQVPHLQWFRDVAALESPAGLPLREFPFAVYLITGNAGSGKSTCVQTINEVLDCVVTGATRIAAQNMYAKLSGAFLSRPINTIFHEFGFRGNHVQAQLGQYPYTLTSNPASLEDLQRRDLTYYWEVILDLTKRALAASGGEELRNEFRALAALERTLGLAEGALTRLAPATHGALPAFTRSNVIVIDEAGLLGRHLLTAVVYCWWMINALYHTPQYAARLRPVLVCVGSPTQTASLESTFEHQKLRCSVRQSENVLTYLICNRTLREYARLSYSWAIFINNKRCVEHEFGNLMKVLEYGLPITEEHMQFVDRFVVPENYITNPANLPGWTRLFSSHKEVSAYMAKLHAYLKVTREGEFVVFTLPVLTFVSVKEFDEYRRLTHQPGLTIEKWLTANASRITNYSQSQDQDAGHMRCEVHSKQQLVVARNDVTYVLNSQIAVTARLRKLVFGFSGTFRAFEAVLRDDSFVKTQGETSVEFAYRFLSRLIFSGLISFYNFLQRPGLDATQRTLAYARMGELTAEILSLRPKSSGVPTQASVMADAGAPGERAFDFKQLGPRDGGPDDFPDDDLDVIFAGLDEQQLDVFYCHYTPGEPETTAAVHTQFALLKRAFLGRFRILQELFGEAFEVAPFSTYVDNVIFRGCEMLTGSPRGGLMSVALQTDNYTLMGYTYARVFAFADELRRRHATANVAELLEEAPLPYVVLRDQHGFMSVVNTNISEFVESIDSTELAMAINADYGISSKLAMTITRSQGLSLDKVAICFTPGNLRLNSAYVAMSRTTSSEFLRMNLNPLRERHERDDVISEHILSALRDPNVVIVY
# Method: Using an Baculoviruses for expressing respective proteins of UL5, UL52 and UL8 which constitute an HSV-1 helicase-primase complex (obtained from Dr. Nigel D. Stow, Medical Research Council, UK), a recombinant HSV-1 helicase-primase complex was prepared by the method described in a report of Crute et al. (J. B. C., 1991, Vol. 266, p. 21252-21256). Detection of DNA-dependent ATPase activity of the HSV-1 helicase-primase complex was carried out in reference to the method described in a report of Crute et al. (J. B. C., 1991, Vol. 266, p. 4484-4488). In brief, 520 ng of the HSV-1 helicase-primase complex was allowed to undergo the reaction at 30° C. for 30 minutes in a reaction liquid containing 20 μg/ml of heat-denatured bovine sperm DNA and 2 mM ATP, and then concentration of phosphoric acid formed through the hydrolysis of ATP into ADP and monophosphate by the activity of ATPase was determined by adding the same volume of Malachite Green reagent (0.03% Malachite Green, 0.1% ammonium molybdate, 4.8% sulfuric acid) and measuring the resulting absorbance at 650 nm. The 50% inhibition concentration (IC50 value) of each compound to be tested for HSV-1 helicase-primase DNA-dependent ATPase was calculated as the concentration which halves the phosphoric acid concentration at the time of not adding the compound.
# [2] = test system: HSV-1 strain WT-51; test: HSV-1 skin infection mouse model (in vivo test); set-up: species or system HR-1 hairless mouse; details: for Lesion inhibitory ratio (%): oral twice a day for 5 days
# Method: Using a cutaneous HSV-1 infection mouse model prepared in accordance with the method of H. Machida et al. (Antiviral Res., 1992, 17, 133-143), in vivo activity of the pharmaceutical composition of the present invention was tested. The skin of each HR-1 hairless mouse [female, 7 weeks of age] was scratched lengthwise and breadthwise several times using a needle and a virus suspension (HSV-1 strain WT-51, 1.5×10^4 PFU/15 μl) was dropped to the scarified region for infection, while anesthetized with diethyl ether.
# Regarding the compounds to be tested, VCV was used as the polymerase inhibitor and made into a methyl cellulose suspension, the compound of Preparation 2, N-(4-methylphenyl)-N-(2-{[4-(1,3-oxazol-4-yl)phenyl]amino}-2-oxoethyl)tetrahydro-2H-thiopyran-4-carboxamide 1,1-dioxide, which is described later, was used as the helicase-primase inhibitor and made into a methyl cellulose suspension, and they were orally administered at the doses of the following table twice a day for 5 days starting after 3 hours of the infection. The symptom of the skin lesion caused by HSV-1 infection were classified in the following scores for 17 days:
# Score 0: no signs of infection.
# Score 1: localized, barely perceptible small vesicles.
# Score 2: slight vesicle spread.
# Score 3: large patches of vesicles formed.
# Score 4: zosteriform vesicles.
# Score 5: large patches of ulcers formed.
# Score 6: zosteriform with severe large ulcers.
# Score 7: hind limb paralysis or death.
# The AUC value was calculated from each group's mean disease score, and the disease inhibitory rate of the group administered with each test compound to the placebo group was calculated using the AUC.
# In the same manner as described in the above, VCV was used as the polymerase inhibitor and the compound of Preparation 27, N-(2,6-dimethylphenyl)-N-(2-{[4-(1,2,4-oxadiazol-3-yl)phenyl]amino}-2-oxoethyl)tetrahydro-2H-thiopyran-4-carboxamide 1,1-dioxide, which is described later, was used as the helicase-primase inhibitor, with the results shown in the following table.
compound,measurement,setting,value
"Cc1ccc(N(CC(=O)Nc2ccc(-c3cocn3)cc2)C(=O)C2CCS(=O)(=O)CC2)cc1 [Preparation 2, N-(4-methylphenyl)-N-(2-{[4-(1,3-oxazol-4-yl)phenyl]amino}-2-oxoethyl)tetrahydro-2H-thiopyran-4-carboxamide 1,1-dioxide]",IC50,[1],84 nM
same,Lesion inhibitory ratio (%),"[2]; Table 2, compound of Preparation 2 1 mg/kg, VCV 0 mg/kg, AUC of disease score over 17 days vs placebo",38%
same,Lesion inhibitory ratio (%),"[2]; Table 2, compound of Preparation 2 3 mg/kg, VCV 0 mg/kg",52%
same,Lesion inhibitory ratio (%),"[2]; Table 2, concomitant use: VCV 10 mg/kg + compound of Preparation 2 1 mg/kg",76%
same,Lesion inhibitory ratio (%),"[2]; Table 2, concomitant use: VCV 10 mg/kg + compound of Preparation 2 3 mg/kg",83%
same,Lesion inhibitory ratio (%),"[2]; Table 2, concomitant use: VCV 30 mg/kg + compound of Preparation 2 1 mg/kg",86%
same,Lesion inhibitory ratio (%),"[2]; Table 2, concomitant use: VCV 30 mg/kg + compound of Preparation 2 3 mg/kg",91%
same,lesion inhibitory activity (in words),"[2]; concomitant use group of VCV with the compound of Preparation 2, compared with VCV single administration",good lesion inhibitory activity in comparison with the VCV single administration group
same,inhibition of the lesions (in words),[2]; concomitant use of 30 mg/kg of VCV with 3 mg/kg of the compound of Preparation 2,almost completely inhibited the lesions
"Cc1cccc(C)c1N(CC(=O)Nc1ccc(-c2ncon2)cc1)C(=O)C1CCS(=O)(=O)CC1 [Preparation 27, N-(2,6-dimethylphenyl)-N-(2-{[4-(1,2,4-oxadiazol-3-yl)phenyl]amino}-2-oxoethyl)tetrahydro-2H-thiopyran-4-carboxamide 1,1-dioxide]",IC50,[1],110 nM
same,Lesion inhibitory ratio (%),"[2]; Table 3, compound of Preparation 27 1 mg/kg, VCV 0 mg/kg",33%
same,Lesion inhibitory ratio (%),"[2]; Table 3, compound of Preparation 27 3 mg/kg, VCV 0 mg/kg",68%
same,Lesion inhibitory ratio (%),"[2]; Table 3, concomitant use: VCV 10 mg/kg + compound of Preparation 27 1 mg/kg",66%
same,Lesion inhibitory ratio (%),"[2]; Table 3, concomitant use: VCV 10 mg/kg + compound of Preparation 27 3 mg/kg",86%
same,Lesion inhibitory ratio (%),"[2]; Table 3, concomitant use: VCV 30 mg/kg + compound of Preparation 27 1 mg/kg",88%
same,Lesion inhibitory ratio (%),"[2]; Table 3, concomitant use: VCV 30 mg/kg + compound of Preparation 27 3 mg/kg",100%
same,lesion inhibitory activity (in words),"[2]; concomitant use groups VCV 10 mg/kg + 3 mg/kg, VCV 30 mg/kg + 1 mg/kg, VCV 30 mg/kg + 3 mg/kg of the compound of Preparation 27, compared with VCV single administration",good lesion inhibitory activity in comparison with the VCV single administration group
same,inhibition of the lesions (in words),[2]; concomitant use of 30 mg/kg of VCV with 3 mg/kg of the compound of Preparation 27,completely inhibited the lesions
"CC(C)[C@H](N)C(=O)OCCOCn1cnc2c(=O)[nH]c(N)nc21 [VCV, valacyclovir, reference compound]",Lesion inhibitory ratio (%),"[2]; Table 2, VCV 10 mg/kg alone",45%
same,Lesion inhibitory ratio (%),"[2]; Table 2, VCV 30 mg/kg alone",57%
same,Lesion inhibitory ratio (%),"[2]; Table 3, VCV 10 mg/kg alone",42%
same,Lesion inhibitory ratio (%),"[2]; Table 3, VCV 30 mg/kg alone",52%
